Series [1] has as its system (GGGGCC)66-expressing SK-N-MC cells. Nature of the series: LDH cytotoxicity assay, (GGGGCC)66-induced cell death. Format: cell-based. The note with it: for suppression of (GGGGCC)66-induced cell death compared with P3L (structure-activity relationship study): 10 μM, single alanine substitution mutants; for effect on (GGGGCC)66-induced cell death (LDH enzyme activity in medium): 0.1, 1, 10 and 20 μM peptide. As to the method: SK-N-MC cells were kindly provided by Prof. Dobrila D. Rudnicki (Johns Hopkins University, USA). […] Leonard Petrucelli (Mayo Clinic, USA).
For IC50 detection, various amount of TAT-P3L, 0.1, 0.5, 1, 10, 50, 100, 500, 1,000 and 10,000 nM were added to individual culture wells after transfection. Forty eight hours after treatment, LDH enzyme activity in the cell culture medium was measured as described before. Experimental groups were normalized to the untransfected control. After normalization, data were analyzed using the dose response-inhibition curve (nonlinear regression-variable slope) to determine the IC50 value (Prism6 software, GraphPad Software, Inc.).

Series [2] concerns UAS-(GGGGCC)36 flies. Put plainly: Lifespan assay. Format: in vivo, Drosophila. The note with it: elavGS flies, RU486 200 μM plus peptide 50 μM in food.
Series [3] relates to UAS-(GGGGCC)3 flies. The following applies: 50 μM in food.
Description: For lifespan and climbing ability assay, flies of 2dpe were feed with food containing different drug combination including vehicle control (ethanol), Mifepristone (RU486, 200 μM), RU486 (200 μM) plus TAT-P3L (50 μM), and RU486 (200 μM) plus TAT-P3LS1 (50 μM). Mifepristone (RU486, 200 μM) was used to induce transgene expression. For climbing ability assay, 10-15 flies were allocated to each experimental vials (total of 90-100 flies per condition) and monitored every 5 days. Fly climbing ability was analyzed by negative geotaxis. Groups of ∞15 flies were anesthetized and placed in a vertical plastic column. After 1 h recovery, flies were banged to the bottom, and then scored for climbing ability as the percentage of flies remaining at the bottom (<2 cm) at 25 s. Three trials were performed at 3 min intervals in each experiment.
A further series has as its system NCL. Nature of the series: Immunostaining, nucleolar stress marker NCL localization. The note with it: (GGGGCC)66-expressing SK-N-MC cells; 10 μM; 48 h. Format: cell-based. As to the method: (§1) SK-N-MC cells were seeded and grown on glass coverslips at a density of 0.8×10^5 in 24-well plate. Forty eight hours after treatment, cells were fixed with 4% paraformaldehyde followed by three times wash with 1×PBS. Cells were then permeabilized in 0.5% Triton X-100 for 10 min at room temperature followed by three washes with 1×PBS. After washing step, cells were blocked with 5% BSA in 1×PBS for 1 h at room temperature. The NCL (1:500, Abcam) or B23 (1:500, Abcam) antibody was then applied with 5% BSA (1:500) 2 h at room temperature. Once the primary antibody was removed, Cells were washed three times with 1×PBS and incubated with an anti-rabbit Cy3 or an anti-mouse Cy3 secondary antibody (1:400, Jackson Labs) 1 h at room temperature. After washing with 1×PBS, nuclei were counterstained with Hoechst 33342 (1 μg/ml, Thermo Fisher Scientific) prior to mounting coverslips. Images were obtained on an OLYMPUS FV1000 IX81-TIRF confocal microscope. A single focal plan was obtained through the centre of the nucleus. The method of quantification of NCL and B23 nuclear area fold change was described previously^7. In order to quantify both dispersed NCL and dense nucleolar NCL, a threshold setting in ImageJ ranging from 25-100 was used to measure the pixel area of NCL relative to the area of the nucleus outlined by the Hoechst staining. […]

Series [4] deals with UAS-(GGGGCC)36 flies. Put plainly: Climbing ability assay. The following applies: elavGS flies, RU486 200 μM plus peptide 50 μM in food, 10, 15, 20 and 25 dpe. It is filed as in vivo, Drosophila. As to the method:
Fly climbing ability was analyzed by negative geotaxis.

Another series deals with nucleophosmin (B23). Put plainly: Immunostaining, nucleolar stress marker B23 localization. Format: cell-based. The following applies: (GGGGCC)66-expressing SK-N-MC cells; 10 μM; 48 h. The procedure:
as §1

Series [5] has as its system UAS-(GGGGCC)36 flies. Put plainly: External eye assay. It is filed as in vivo, Drosophila. The following applies: GMR-Gal4/UAS-(GGGGCC)36 flies; 100 μM feeding; 1 day-old adults. As to the method:
(§2) Flies were raised at 25° C. on cornmeal medium supplemented with dry yeast. For […], third instar larvae were feed with 100 μM of TAT-P3L or TAT-P3LS1 dissolved in 2% sucrose solution for 2 h and then continued to culture in standard fly food. Eye images of 1 day-old adult of UAS-(GGGGCC)3 or UAS-(GGGGCC)36 flies were captured using a SPOT Insight CCD camera (Diagnostic instruments Inc.) on an Olympus SZX-12 stereomicroscope.

Series [6] relates to expanded CAG repeat-mediated nucleolar stress. The note with it: polyQ disease; inventors' previous work (ref. 20); cited from earlier work.
In series [7] the test system is UAS-(GGGGCC)3 flies. Nature of the series: External eye assay, control flies. It is filed as in vivo, Drosophila. The following applies: GMR-Gal4/UAS-(GGGGCC)3 flies; 100 μM feeding. As to the method: as §2
Series [8] has as its system UAS-(GGGGCC)3 flies. Nature of the series: Lifespan assay, control flies. Format: in vivo, Drosophila. The note with it: 50 μM in food.
The subject of series [9] is GGGGCC RNA foci in (GGGGCC)66-expressing SK-N-MC cells. Nature of the series: RNA fluorescence in situ hybridization, GGGGCC RNA foci formation. The note with it: 10 μM, 48 h. Format: cell-based. The procedure:
In situ hybridization was carried out to evaluate the effect of TAT-P3L on GGGGCC RNA foci formation in […]-expressing SK-N-MC cells. In brief, 0.8×10^5 SK-N-MC cells were seeded and grown on glass coverslips in 24-well plate. Ten micromolar of TAT-P3L or TAT-P3LS1 were added immediately after transfection of 1 μg of pAg3-(GGGGCC)2/66 plasmid. After 48 h, cells were fixed with 4% paraformaldehyde for 10 min and permeabilized with 0.5% Triton-X 100 for 5 min at room temperature. Cells were then washed with phosphate buffered saline treated with diethylpyrocarbonate (DEP-CPBS) three times, and hybridized with 40 nM denatured TYE563-labeled LNA probe (5′-TYE563-CCCGGCCCCGGCCCC-3′; SEQ ID NO:13; Exiqon, Inc) in hybridization buffer (50% formamide, 10% dextran sulfate, 2× saline-sodium citrate buffer (SSC), 50 mM sodium phosphate buffer) 6 h at 65° C. After washing once with 0.1% Tween-20/2×SSC for 5 min at room temperature, cell were further washed with 0.1×SSC 3 times at 65° C. for 10 min. Nuclei were counterstained with Hoechst 33342 (1 μg/ml, Thermo Fisher Scientific) prior to mounting coverslips. Images were obtained on an OLYMPUS FV1000 IX81-TIRF confocal microscope.

This is an account of results in patent US11197911B2, “Peptidylic inhibitors targeting C9ORF72 hexanucleotide repeat-mediated neurodegeneration” (The Chinese University of Hong Kong, priority 2016, dated 2021).

“Also recorded” adds a separate entry of the source. No end group written: not given here.

Regarding “TAT-P3LMT1: TAT-P3L mutant carrying a single alanine substitution; mutant part SEQ ID NO:14 (YGRKKRRQRRRAAIRLVSKDGKSKGIAYIEFK; synthetic peptide construct TAT; synthetic peptide mutant PL3MT1)”, the “suppression of (GGGGCC)66-induced cell death compared with P3L (structure-activity relationship study)” value in series [1] (48 h) is recorded as “same suppression effect as the P3L peptide”.
For “TAT-P3LMT19: TAT-P3L mutant carrying a single alanine substitution; mutant part SEQ ID NO:32 (YGRKKRRQRRRAEIRLVSKDGKSKGIAYIEFA; synthetic peptide construct TAT; synthetic peptide mutant PL3MT19)”, in series [1] (48 h), the “suppression of (GGGGCC)66-induced cell death compared with P3L (structure-activity relationship study)” value was “same suppression effect as the P3L peptide”.
For AEIRLVSKDGKSKGIAYIEFK [P3L], in the series with UAS-(GGGGCC)36 flies [2], the “lifespan (in words)” value is listed as “extended lifespan”. For the same substance, the “climbing ability of control flies” value in the series with UAS-(GGGGCC)3 flies [3] is “not found to be affecting the climbing ability”. The “subcellular localization of NCL” value in the series with NCL is on record as “restored the subcellular localization”. Moreover, the climbing defect entry in the series on UAS-(GGGGCC)36 flies [4] was “rescued locomotor deficit”. The “subcellular localization of B23” value in the series on nucleophosmin (B23) is recorded as “restored the subcellular localization”. Besides, the “eye degeneration (scar formation in eye)” value with UAS-(GGGGCC)36 flies [5] is “significantly suppressed neurodegeneration”.
As for “P3: peptide DGKSKGIAYIEFK (SEQ ID NO:2), derived from RRM2 of NCL, inventors' previous work (synthetic peptide construct P3)”, in [6], the “inhibition of expanded CAG repeat-mediated nucleolar stress and neurodegeneration” value is “specifically inhibited expanded CAG repeat-mediated nucleolar stress”.
Consider “TAT-RRM4-P1: TAT fusion peptide YGRKKRRQRRRRARIVTDRETGSSKGFGFVD (SEQ ID NO: 10), derived from RRM4 of NCL (synthetic peptide construct TAT-RRM4-P1)”, for which, in series [1] (48 h), the “effect on (GGGGCC)66-induced cell death (LDH enzyme activity in medium)” value is listed as “did not demonstrate any modifying effect; also recorded: did not alter”.
With “YGRKKRRQRRRTFIKVPQNQNGKSKGYAF [TAT-RRM3-P1]”, the “cytotoxicity elicited by the peptide by itself (LDH)” value in [1] (when the dose was raised) is given as “elicited cytotoxicity”.
For the substance “YGRKKRRQRRRAEIRLVSKDGKSKGIAYIEFK [TAT-P3L]”, in the series on UAS-(GGGGCC)3 flies [7], the “eye defect in control flies” value is on record as “did not cause any observable eye defect”. Further, the “lifespan of control flies” value in the series with UAS-(GGGGCC)3 flies [8] is “did not alter the lifespan”. In [9], the “RNA foci-like structure formation in control group” value is listed as “no RNA foci-like structure formed”. For the same substance, the IC50 (usually the concentration that inhibits the measured activity by half) in series [1] (48 h, concentration reducing LDH enzyme activity by 50% vs untreated control, read-out: IC50 in suppressing (GGGGCC)66-induced cell death) is 0.104 ± 0.0246 µM.
Consider “YGRKKRRQRRRGGEDIKSRVEAASILYFIKKK [TAT-P3LS1, reference compound]”, for which the “RNA foci-like structure formation in control group” value in series [9] is “no RNA foci-like structure formed”.
Turning to “TAT-RRM1-P1: TAT fusion peptide YGRKKRRQRRRTGTNRKFGYVD (SEQ ID NO: 7), derived from RRM1 of NCL (synthetic peptide construct TAT-RRM1-P1)”, the “effect on (GGGGCC)66-induced cell death (LDH enzyme activity in medium)” value in [1] (48 h) was “did not demonstrate any modifying effect; also recorded: didn't alter”.
